Experimental data published in ChEMBL document CHEMBL1201862, “PubChem BioAssay data set” (2004).
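Method: 48-hour compound exposure of cells in 96-well plates, five concentrations, linear interpolation of endpoints. Here, GI50 denotes the concentration required for 50% inhibition of growth.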 The source made the active and inactive calls. No stated cut-off is given here; in the data, active = GI50 up to about 1.1 µM and inactive = higher.

Experiments:
Test in all cases: NCI-60 cell line screen, 48 h
RPMI-8226 = test system: RPMI-8226
U-251 = test system: U-251
NCI-H460 = test system: NCI-H460
SK-OV-3 = test system: SK-OV-3
TK-10 = test system: TK-10
MDA-MB-231 = test system: MDA-MB-231
CAKI-1 = test system: CAKI-1
SF-268 = test system: SF-268
HL-60 = test system: HL-60
OVCAR-3 = test system: OVCAR-3
HCT-116 = test system: HCT-116
NCI/ADR-RES = test system: NCI/ADR-RES
CCRF-CEM = test system: CCRF-CEM
Hs-578T = test system: Hs-578T
SNB-75 = test system: SNB-75
T47D = test system: T47D
LOX IMVI = test system: LOX IMVI
HOP-92 = test system: HOP-92

Measured: GI50

COc1c(O)ccc2c1CN1CCc3cc4c(cc3C1C2)OCO4 (stereo not given)
inactive: RPMI-8226 32.4 µM | U-251 29.6 µM | NCI-H460 18.4 µM | SK-OV-3 23.1 µM | TK-10 28.9 µM | MDA-MB-231 29.3 µM | CAKI-1 38.3 µM | SF-268 37 µM | HL-60 20 µM | OVCAR-3 26.4 µM | HCT-116 24 µM | NCI/ADR-RES 20.9 µM | CCRF-CEM 30.8 µM | Hs-578T 27.4 µM | SNB-75 14.5 µM | T47D 20.9 µM | LOX IMVI 22.8 µM | HOP-92 51.8 µM

COC(=O)c1c(O)ccc2c1c1c(n2-c2ccc(OC)cc2)C(=O)c2ccccc2C1=O
inactive: RPMI-8226 9.73 µM | U-251 13 µM | NCI-H460 5.04 µM | SK-OV-3 19.3 µM | TK-10 12 µM | MDA-MB-231 16.5 µM | CAKI-1 14.1 µM | SF-268 14.8 µM | HL-60 > 100 µM | OVCAR-3 22.9 µM | HCT-116 16.9 µM | NCI/ADR-RES 14.7 µM | CCRF-CEM 15.2 µM | Hs-578T 16.9 µM | SNB-75 23.9 µM | T47D 11.7 µM | LOX IMVI 21.7 µM | HOP-92 14.8 µM

CSC(=S)Nc1cccc(C)n1
inactive: RPMI-8226 > 100 µM | U-251 > 100 µM | NCI-H460 > 100 µM | SK-OV-3 > 100 µM | TK-10 > 100 µM | MDA-MB-231 > 100 µM | CAKI-1 > 100 µM | SF-268 > 100 µM | HL-60 > 100 µM | OVCAR-3 52.4 µM | HCT-116 > 100 µM | NCI/ADR-RES > 100 µM | CCRF-CEM > 100 µM | Hs-578T > 100 µM | SNB-75 > 100 µM | T47D > 100 µM | LOX IMVI > 100 µM | HOP-92 > 100 µM

CNC1Cc2c[nH]c3cccc(c23)C12C=C(C)C(=O)O2 (stereo not given)
inactive: RPMI-8226 > 100 µM | U-251 > 100 µM | NCI-H460 > 100 µM | SK-OV-3 > 100 µM | TK-10 > 100 µM | MDA-MB-231 > 100 µM | CAKI-1 > 100 µM | SF-268 > 100 µM | HL-60 > 100 µM | OVCAR-3 > 100 µM | HCT-116 > 100 µM | NCI/ADR-RES > 100 µM | CCRF-CEM > 100 µM | Hs-578T > 100 µM | SNB-75 > 100 µM | T47D > 100 µM | LOX IMVI > 100 µM | HOP-92 > 100 µM

O=C(CN1CCCCC1)CC(O)(C(F)(F)F)C(F)(F)F
inactive: RPMI-8226 > 100 µM | U-251 > 100 µM | NCI-H460 > 100 µM | SK-OV-3 > 100 µM | TK-10 > 100 µM | MDA-MB-231 > 100 µM | CAKI-1 > 100 µM | HL-60 > 100 µM | OVCAR-3 > 100 µM | HCT-116 > 100 µM | NCI/ADR-RES > 100 µM | CCRF-CEM > 100 µM | Hs-578T 95.9 µM | SNB-75 20.5 µM | T47D > 100 µM | LOX IMVI > 100 µM | HOP-92 > 100 µM

CC[C@@H]1CC[C@@H]2[C@H](CC[C@]3(C)[C@@H](O[N+](=O)[O-])CC[C@@H]23)[C@H]1C(C)=O
inactive: RPMI-8226 9.02 µM | U-251 32.4 µM | NCI-H460 27.4 µM | TK-10 > 100 µM | MDA-MB-231 11.8 µM | CAKI-1 50.7 µM | SF-268 24.5 µM | HL-60 13.5 µM | OVCAR-3 64.1 µM | HCT-116 23.7 µM | NCI/ADR-RES 21.8 µM | CCRF-CEM 32.4 µM | Hs-578T 44.7 µM | SNB-75 27.6 µM | T47D 12.9 µM | LOX IMVI 20 µM | HOP-92 21.6 µM

O=C1CCCc2ccc3c(c21)CC1(Cc2cc4c(cc2C1)CCCC4)C3
inactive: RPMI-8226 10.2 µM | U-251 20.4 µM | NCI-H460 22.8 µM | SK-OV-3 43.9 µM | TK-10 23.1 µM | MDA-MB-231 15.5 µM | SF-268 29 µM | HL-60 6.05 µM | OVCAR-3 20.1 µM | HCT-116 16.1 µM | NCI/ADR-RES 25.9 µM | CCRF-CEM 3.94 µM | Hs-578T 30.4 µM | SNB-75 20.7 µM | T47D 5.38 µM | LOX IMVI 14.6 µM | HOP-92 12.9 µM

C/C=C/[C@@H]1[C@H]2C(=O)[C@]3(Cl)[C@@H](/C=C/C)[C@@H]3C(=O)[C@@]12Cl
inactive: U-251 85.3 µM | NCI-H460 > 100 µM | SK-OV-3 > 100 µM | TK-10 > 100 µM | MDA-MB-231 94.2 µM | CAKI-1 > 100 µM | SF-268 > 100 µM | HL-60 > 100 µM | OVCAR-3 > 100 µM | HCT-116 > 100 µM | NCI/ADR-RES > 100 µM | CCRF-CEM 52 µM | Hs-578T 35.2 µM | SNB-75 53.3 µM | T47D > 100 µM | LOX IMVI > 100 µM | HOP-92 94 µM
